These results are taken from US6521239B1, “Cosmetic composition containing at least one auxin and its use” (Societe L'Oreal S.A., priority 1997, dated 2003).

The test has as its system reconstructed human epidermis. Kind of test: incorporation of 14C-acetate into total lipids in reconstructed human epidermis (Skinethic). Type of test: cell-based. The settings on record: for percentage of stimulation (incorporation of 14C-acetate, total lipid synthesis): untreated cells = 100. The protocol:
Study of the effect of β-naphthoxyacetic acid on the synthesis of the total lipids of the skin.
The study is carried out by measuring the incorporation of acetate labelled with carbon-14 in models of reconstructed human epidermis sold by the company Skinethic, the total lipids composition of which is close to that of normal human epidermis.
The reconstructed human epidermis is cultured according to the supplier's recommendations.
β-Naphthoxyacetic acid, at concentrations of 10^−5, 10^−6, and 10^−7 M, is placed in contact for 72 hours with reconstructed human epidermides, after culturing the latter for 14 days under the conditions recommended by the supplier. The labelling with ^14C-acetate (sodium [2-^14C]-acetate sold by Amersham, 59 mci/mmol) is carried out 24 hours after placing the test product in contact with the culture, i.e. during the final 48 hours of culturing, at a rate of 0.5 μCi of ^14C-acetate per culture.
At the end of culturing, after washing the epidermides with phosphate buffer (PBS), the epidermides are dissociated and the cells are lysed with 0.5 M perchloric acid from ice. The lysates then undergo an extraction with a methanol/chloroform mixture (2:1), a centrifugation and a re-extraction of the pellets obtained, under the same conditions as above. The lipids are separated by addition of PBS and chloroform (Blight-Byer technique). The organic phase containing the lipids is taken and the radioactivity incorporated into this phase is determined by liquid scintillation. The organic phase is then dried under a flow of nitrogen. A thin layer chromatography on plates on plates (Merck K60) using, as eluent, a chloroform/methanol/water mixture (50:18:2.6) to separate the phospholipids, or a hexane/ether/acetic acid mixture (15:5.6:0.19) to separate the neutral lipids.
The plates are then autoradiographed for 24 hours and the chromatograms are analysed by densitometry using the One-D-Scan software from the company Scanalytics.
The results are evaluated relative to a control consisting of cells which have not been treated with β-naphthoxyacetic acid.
A positive control (10^−4 M trifluoperazine), which is known to stimulate lipid synthesis, and an negative control (10^−6 M retinoic acid) are introduced into the test by way of reference.

Turning to `CC1=C(/C=C/C(C)=C/C=C/C(C)=C/C(=O)O)C(C)(C)CCC1` [Retinoic acid, retinoic acid, reference compound], the “percentage of stimulation (incorporation of 14C-acetate, total lipid synthesis)” value (shortened to “percentage of stimulation”) (10^−6 M, 72 hours contact) turned out to be 82%.
Turning to `O=C(O)COc1ccc2ccccc2c1` [β-Naphthoxyacetic acid], the “percentage of stimulation” value stood at 110% (10^−5 M, 72 hours contact); 113% (10^−6 M, 72 hours contact); 116% (10^−7 M, 72 hours contact). Further, under “10^−5 to 10^−7 M, reconstructed human epidermis”, the “effect on incorporation of acetate / lipid synthesis (in words)” value was “significantly stimulates the incorporation of acetate”.
For the compound `CN1CCN(CCCN2c3ccccc3Sc3ccc(C(F)(F)F)cc32)CC1` [Trifluoroperazine, trifluoperazine, reference compound], the “percentage of stimulation” value (10^−4 M, positive control) is on record as 122%.
